Data: article PMC4823954, “From fighting depression to conquering tumors: a novel tricyclic thiazepine compound as a tubulin polymerization inhibitor” (Cell Death & Disease, 2016)

Experiments:
Assay in all cases: KINOMEscan
Type in all cases: binding
Conditions in all cases: read-out: % Ctrl
PIK3CB = target: T1, PIK3CB (Homo sapiens, UniProt P42338)
T1 construct: purchased DiscoveRx KINOMEscan
Experimental: (§1) The binding assay for 442 non-mutant kinases was performed using KINOMEscan (DiscoveRx Corporation, Fremont, CA, USA) as reported previously.[58], [59] TBPT was screened at concentrations of 5 and 10 μM to identify the affected kinases. KINOMEscan is based on a competition reaction that quantitatively measures the ability of a test compound to compete with an active site-directed ligand for binding to the kinase active site. […] After the assay plates were incubated with shaking for 1 h, the liganded beads were washed with washing buffer (1 × PBS and 0.05% Tween 20). Then, the beads were re-suspended in elution buffer (1 × PBS, 0.05% Tween 20, and 0.5 μM ligand) and incubated with shaking for 30 min. The kinase concentration in the eluates was measured via qPCR. The results are represented as ‘%Ctrl', which was calculated using the following formula: (test compound signal–positive control signal)/(DMSO signal–positive control signal) × 100%. A lower % Ctrl indicates stronger binding to the kinase active site.

EPHA6 = target: T2, EPHA6 (Homo sapiens, UniProt Q9UF33)
T2 construct: purchased DiscoveRx KINOMEscan
Experimental: as §1

NLK = target: T3, NLK (Homo sapiens, UniProt Q9UBE8)
T3 construct: purchased DiscoveRx KINOMEscan
Experimental: as §1

FGFR3 = target: T4, FGFR3 (Homo sapiens, UniProt P22607)
T4 construct: purchased DiscoveRx KINOMEscan
Experimental: as §1

HCK = target: T5, HCK (Homo sapiens, UniProt P08631)
T5 construct: purchased DiscoveRx KINOMEscan
Experimental: as §1

CAMK2B = target: T6, CAMK2B (Homo sapiens, UniProt Q13554)
T6 construct: purchased DiscoveRx KINOMEscan
Experimental: as §1

TTK = target: T7, TTK (Homo sapiens, UniProt P33981)
T7 construct: purchased DiscoveRx KINOMEscan
Experimental: as §1

HIPK3 = target: T8, HIPK3 (Homo sapiens, UniProt Q9H422)
T8 construct: purchased DiscoveRx KINOMEscan
Experimental: as §1

PKN2 = target: T9, PKN2 (Homo sapiens, UniProt Q16513)
T9 construct: purchased DiscoveRx KINOMEscan
Experimental: as §1

PRKCD = target: T10, PRKCD (Homo sapiens, UniProt Q05655)
T10 construct: purchased DiscoveRx KINOMEscan
Experimental: as §1

CDC2L5 = target: T11, CDC2L5 (Homo sapiens, UniProt Q14004)
T11 construct: purchased DiscoveRx KINOMEscan
Experimental: as §1

CAMK2D = target: T12, CAMK2D (Homo sapiens, UniProt Q13557)
T12 construct: purchased DiscoveRx KINOMEscan
Experimental: as §1

EGFR(G719S) = target: T13, EGFR(G719S) (Homo sapiens, UniProt P00533, G719S)
T13 construct: purchased DiscoveRx KINOMEscan
Experimental: as §1

MEK6 = target: T14, MEK6 (Homo sapiens, UniProt P52564)
T14 construct: purchased DiscoveRx KINOMEscan
Experimental: as §1

FGFR4 = target: T15, FGFR4 (Homo sapiens, UniProt P22455)
T15 construct: purchased DiscoveRx KINOMEscan
Experimental: as §1

p38-alpha = target: T16, p38-alpha (Homo sapiens, UniProt Q16539)
T16 construct: purchased DiscoveRx KINOMEscan
Experimental: as §1

CAMK1D = target: T17, CAMK1D (Homo sapiens, UniProt Q8IU85)
T17 construct: purchased DiscoveRx KINOMEscan
Experimental: as §1

EPHA4 = target: T18, EPHA4 (Homo sapiens, UniProt P54764)
T18 construct: purchased DiscoveRx KINOMEscan
Experimental: as §1

PIK3CA(E545K) = target: T19, PIK3CA(E545K) (Homo sapiens, UniProt P42336, E545K)
T19 construct: purchased DiscoveRx KINOMEscan
Experimental: as §1

MYLK4 = target: T20, MYLK4 (Homo sapiens, UniProt Q86YV6)
T20 construct: purchased DiscoveRx KINOMEscan
Experimental: as §1

PFCDPK1(P.falciparum) = target: T21, PFCDPK1(P.falciparum) (Plasmodium falciparum, UniProt P62344)
T21 construct: purchased DiscoveRx KINOMEscan
Experimental: as §1

MRCKA = target: T22, MRCKA (Homo sapiens, UniProt Q5VT25)
T22 construct: purchased DiscoveRx KINOMEscan
Experimental: as §1

LIMK1 = target: T23, LIMK1 (Homo sapiens, UniProt P53667)
T23 construct: purchased DiscoveRx KINOMEscan
Experimental: as §1

MKNK1 = target: T24, MKNK1 (Homo sapiens, UniProt Q9BUB5)
T24 construct: purchased DiscoveRx KINOMEscan
Experimental: as §1

DAPK3 = target: T25, DAPK3 (Homo sapiens, UniProt O43293)
T25 construct: purchased DiscoveRx KINOMEscan
Experimental: as §1

[1] = target: T26, RPS6KA4(Kin.Dom.1-N-terminal) (Homo sapiens, UniProt O75676)
T26 construct: RPS6KA4(Kin.Dom.1-N-terminal); purchased DiscoveRx KINOMEscan
Experimental: as §1

ACVR1 = target: T27, ACVR1 (Homo sapiens, UniProt Q04771)
T27 construct: purchased DiscoveRx KINOMEscan
Experimental: as §1

PRKG1 = target: T28, PRKG1 (Homo sapiens, UniProt Q13976)
T28 construct: purchased DiscoveRx KINOMEscan
Experimental: as §1

EGFR(L858R,T790M) = target: T29, EGFR(L858R,T790M) (Homo sapiens, UniProt P00533, L858R/T790M)
T29 construct: purchased DiscoveRx KINOMEscan
Experimental: as §1

TYRO3 = target: T30, TYRO3 (Homo sapiens, UniProt Q06418)
T30 construct: purchased DiscoveRx KINOMEscan
Experimental: as §1

T28 sequence (Q13976 whole entry): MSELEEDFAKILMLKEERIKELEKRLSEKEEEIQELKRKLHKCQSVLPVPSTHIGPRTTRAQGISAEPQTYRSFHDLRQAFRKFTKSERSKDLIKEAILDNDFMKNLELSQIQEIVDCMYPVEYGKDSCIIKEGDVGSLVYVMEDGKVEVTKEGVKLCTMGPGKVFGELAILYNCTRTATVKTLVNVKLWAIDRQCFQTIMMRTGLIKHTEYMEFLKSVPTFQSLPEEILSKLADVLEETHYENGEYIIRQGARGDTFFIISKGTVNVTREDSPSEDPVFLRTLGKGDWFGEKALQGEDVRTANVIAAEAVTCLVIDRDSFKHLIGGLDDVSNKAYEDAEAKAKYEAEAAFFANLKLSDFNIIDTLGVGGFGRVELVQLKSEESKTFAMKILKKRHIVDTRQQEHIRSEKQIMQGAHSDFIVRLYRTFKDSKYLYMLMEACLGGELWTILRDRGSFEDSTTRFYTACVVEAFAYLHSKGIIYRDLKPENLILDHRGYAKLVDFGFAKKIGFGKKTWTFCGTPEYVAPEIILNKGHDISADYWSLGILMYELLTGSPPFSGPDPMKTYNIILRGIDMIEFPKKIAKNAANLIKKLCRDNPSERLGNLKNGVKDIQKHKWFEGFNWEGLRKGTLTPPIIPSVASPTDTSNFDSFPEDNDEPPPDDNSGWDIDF
T17 sequence (Q8IU85 whole entry): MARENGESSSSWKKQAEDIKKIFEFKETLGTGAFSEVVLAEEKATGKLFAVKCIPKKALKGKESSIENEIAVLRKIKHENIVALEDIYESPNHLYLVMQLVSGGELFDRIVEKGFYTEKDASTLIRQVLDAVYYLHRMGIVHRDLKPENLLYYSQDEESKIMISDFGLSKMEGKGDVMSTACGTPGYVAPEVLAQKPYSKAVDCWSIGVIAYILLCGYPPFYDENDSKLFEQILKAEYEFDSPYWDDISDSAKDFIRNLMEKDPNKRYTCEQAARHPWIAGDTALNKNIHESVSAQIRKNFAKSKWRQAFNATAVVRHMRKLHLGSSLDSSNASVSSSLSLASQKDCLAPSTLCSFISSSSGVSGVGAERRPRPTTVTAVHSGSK
T8 sequence (Q9H422 whole entry): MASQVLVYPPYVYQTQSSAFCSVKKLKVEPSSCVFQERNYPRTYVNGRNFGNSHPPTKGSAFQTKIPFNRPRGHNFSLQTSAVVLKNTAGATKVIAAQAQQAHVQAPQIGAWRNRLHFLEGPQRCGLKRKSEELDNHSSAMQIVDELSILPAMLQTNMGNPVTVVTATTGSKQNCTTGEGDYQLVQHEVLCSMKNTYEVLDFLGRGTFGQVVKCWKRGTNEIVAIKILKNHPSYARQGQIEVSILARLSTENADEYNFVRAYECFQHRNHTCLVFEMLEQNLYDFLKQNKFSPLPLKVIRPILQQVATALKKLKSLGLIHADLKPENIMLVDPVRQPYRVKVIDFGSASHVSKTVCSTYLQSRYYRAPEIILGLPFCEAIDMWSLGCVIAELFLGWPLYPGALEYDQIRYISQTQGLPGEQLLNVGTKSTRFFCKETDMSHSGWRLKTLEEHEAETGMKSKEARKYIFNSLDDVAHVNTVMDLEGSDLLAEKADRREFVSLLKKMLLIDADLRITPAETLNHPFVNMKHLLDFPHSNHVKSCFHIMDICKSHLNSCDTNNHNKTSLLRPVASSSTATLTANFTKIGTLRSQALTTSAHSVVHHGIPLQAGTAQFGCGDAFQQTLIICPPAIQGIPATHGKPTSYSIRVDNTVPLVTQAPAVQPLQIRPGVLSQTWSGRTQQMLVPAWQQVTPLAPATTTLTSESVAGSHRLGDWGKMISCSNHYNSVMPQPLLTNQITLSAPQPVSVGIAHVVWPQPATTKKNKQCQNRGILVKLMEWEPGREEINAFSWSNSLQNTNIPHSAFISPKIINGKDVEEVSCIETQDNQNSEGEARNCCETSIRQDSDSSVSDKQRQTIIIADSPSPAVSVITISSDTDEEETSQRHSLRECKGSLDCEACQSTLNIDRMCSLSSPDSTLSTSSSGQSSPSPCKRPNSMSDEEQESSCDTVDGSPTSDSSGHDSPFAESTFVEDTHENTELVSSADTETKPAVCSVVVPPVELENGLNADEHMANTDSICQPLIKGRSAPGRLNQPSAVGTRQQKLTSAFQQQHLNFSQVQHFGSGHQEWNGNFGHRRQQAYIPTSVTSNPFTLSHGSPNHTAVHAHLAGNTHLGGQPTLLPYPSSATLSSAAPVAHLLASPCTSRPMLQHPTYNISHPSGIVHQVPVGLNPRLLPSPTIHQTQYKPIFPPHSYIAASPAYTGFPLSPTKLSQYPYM
T4 sequence (P22607 23-806): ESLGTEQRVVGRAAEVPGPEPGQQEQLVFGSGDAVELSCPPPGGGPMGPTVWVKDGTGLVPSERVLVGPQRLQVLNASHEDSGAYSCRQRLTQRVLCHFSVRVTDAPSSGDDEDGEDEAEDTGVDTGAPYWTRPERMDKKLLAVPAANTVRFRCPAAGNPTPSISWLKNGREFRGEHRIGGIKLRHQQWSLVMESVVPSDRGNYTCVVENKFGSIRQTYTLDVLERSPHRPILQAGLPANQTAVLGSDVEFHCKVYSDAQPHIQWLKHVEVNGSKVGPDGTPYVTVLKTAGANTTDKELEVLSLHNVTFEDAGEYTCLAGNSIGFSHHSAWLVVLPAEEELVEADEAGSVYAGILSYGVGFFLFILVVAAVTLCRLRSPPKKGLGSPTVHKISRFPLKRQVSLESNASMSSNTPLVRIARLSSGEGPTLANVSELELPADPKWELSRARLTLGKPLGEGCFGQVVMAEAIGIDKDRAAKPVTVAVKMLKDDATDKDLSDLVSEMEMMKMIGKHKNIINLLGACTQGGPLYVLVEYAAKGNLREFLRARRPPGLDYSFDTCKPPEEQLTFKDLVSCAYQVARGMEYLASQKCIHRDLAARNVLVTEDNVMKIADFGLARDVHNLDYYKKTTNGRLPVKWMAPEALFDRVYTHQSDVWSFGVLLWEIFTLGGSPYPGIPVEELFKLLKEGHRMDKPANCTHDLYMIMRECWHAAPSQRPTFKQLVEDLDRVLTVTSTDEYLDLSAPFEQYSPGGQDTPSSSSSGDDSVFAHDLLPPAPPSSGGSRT
T5 sequence (P08631 whole entry): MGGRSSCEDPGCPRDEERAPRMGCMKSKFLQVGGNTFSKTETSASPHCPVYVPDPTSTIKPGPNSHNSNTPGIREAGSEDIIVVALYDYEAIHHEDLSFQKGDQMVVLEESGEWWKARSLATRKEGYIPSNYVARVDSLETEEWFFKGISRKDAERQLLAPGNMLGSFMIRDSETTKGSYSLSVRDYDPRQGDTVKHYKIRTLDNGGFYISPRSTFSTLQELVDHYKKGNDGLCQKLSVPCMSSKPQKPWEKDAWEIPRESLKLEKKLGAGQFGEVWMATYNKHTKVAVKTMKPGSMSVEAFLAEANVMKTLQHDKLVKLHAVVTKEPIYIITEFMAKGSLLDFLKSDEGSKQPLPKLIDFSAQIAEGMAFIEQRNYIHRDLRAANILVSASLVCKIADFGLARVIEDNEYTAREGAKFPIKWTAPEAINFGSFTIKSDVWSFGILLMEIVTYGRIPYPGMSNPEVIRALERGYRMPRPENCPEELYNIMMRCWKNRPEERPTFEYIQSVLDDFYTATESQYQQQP
T26 sequence (O75676 1-371 limits assumed): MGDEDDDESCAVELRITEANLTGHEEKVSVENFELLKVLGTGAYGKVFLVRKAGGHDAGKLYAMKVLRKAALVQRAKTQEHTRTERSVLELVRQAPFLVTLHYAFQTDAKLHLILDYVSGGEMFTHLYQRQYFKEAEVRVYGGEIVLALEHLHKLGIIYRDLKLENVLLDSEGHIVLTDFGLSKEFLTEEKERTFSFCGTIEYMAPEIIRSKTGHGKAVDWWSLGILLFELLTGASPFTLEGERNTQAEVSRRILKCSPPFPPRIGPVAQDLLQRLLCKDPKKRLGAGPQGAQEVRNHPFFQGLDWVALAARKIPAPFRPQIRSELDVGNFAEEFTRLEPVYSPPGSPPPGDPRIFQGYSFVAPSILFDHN
T1 sequence (P42338 whole entry): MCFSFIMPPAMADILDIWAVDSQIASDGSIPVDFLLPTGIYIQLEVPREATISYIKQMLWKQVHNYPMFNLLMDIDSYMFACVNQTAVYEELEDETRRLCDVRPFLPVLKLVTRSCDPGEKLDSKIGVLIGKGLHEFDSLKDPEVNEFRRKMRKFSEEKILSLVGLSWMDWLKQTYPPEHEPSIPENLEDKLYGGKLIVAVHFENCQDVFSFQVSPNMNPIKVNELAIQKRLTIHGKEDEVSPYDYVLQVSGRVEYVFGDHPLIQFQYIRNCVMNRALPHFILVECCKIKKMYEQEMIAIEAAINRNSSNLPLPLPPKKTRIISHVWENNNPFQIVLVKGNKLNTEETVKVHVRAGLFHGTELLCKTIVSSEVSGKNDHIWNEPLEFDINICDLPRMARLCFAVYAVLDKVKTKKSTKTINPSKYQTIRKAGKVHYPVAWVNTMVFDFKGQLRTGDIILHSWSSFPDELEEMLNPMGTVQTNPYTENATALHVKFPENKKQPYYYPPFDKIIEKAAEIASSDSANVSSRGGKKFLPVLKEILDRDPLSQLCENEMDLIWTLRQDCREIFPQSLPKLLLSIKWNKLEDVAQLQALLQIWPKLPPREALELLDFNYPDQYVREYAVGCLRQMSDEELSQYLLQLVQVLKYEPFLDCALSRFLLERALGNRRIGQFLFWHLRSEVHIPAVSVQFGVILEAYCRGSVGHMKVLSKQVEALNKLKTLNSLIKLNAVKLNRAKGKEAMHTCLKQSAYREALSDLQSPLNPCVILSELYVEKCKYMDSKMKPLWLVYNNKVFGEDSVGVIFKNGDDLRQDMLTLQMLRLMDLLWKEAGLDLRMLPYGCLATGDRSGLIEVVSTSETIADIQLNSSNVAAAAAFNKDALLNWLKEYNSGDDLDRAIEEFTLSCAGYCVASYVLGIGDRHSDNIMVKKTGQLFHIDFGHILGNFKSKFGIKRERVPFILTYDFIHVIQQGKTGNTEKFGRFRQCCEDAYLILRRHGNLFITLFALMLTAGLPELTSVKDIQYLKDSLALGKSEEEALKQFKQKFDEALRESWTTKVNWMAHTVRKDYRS

## Cc1ccc(C2=Nc3cccnc3S(=O)(=O)c3ccccc32)cc1 [TBPT, 6-(p-tolyl)benzo[f] pyrido[2,3-b][1,4] thiazepine 11,11-dioxide]
PIK3CB; 5 μM
  remaining binding at 5 µM: 36%
PIK3CB; 10 μM
  remaining binding at 10 µM: 100%
EPHA6; 5 μM
  remaining binding at 5 µM: 98%
EPHA6; 10 μM
  remaining binding at 10 µM: 92%
NLK; 5 μM
  remaining binding at 5 µM: 83%
NLK; 10 μM
  remaining binding at 10 µM: 89%
FGFR3; 5 μM
  remaining binding at 5 µM: 89%
FGFR3; 10 μM
  remaining binding at 10 µM: 100%
HCK; 5 μM
  remaining binding at 5 µM: 93%
HCK; 10 μM
  remaining binding at 10 µM: 100%
CAMK2B; 5 μM
  remaining binding at 5 µM: 100%
CAMK2B; 10 μM
  remaining binding at 10 µM: 100%
TTK; 5 μM
  remaining binding at 5 µM: 100%
TTK; 10 μM
  remaining binding at 10 µM: 100%
HIPK3; 5 μM
  remaining binding at 5 µM: 100%
HIPK3; 10 μM
  remaining binding at 10 µM: 100%
PKN2; 5 μM
  remaining binding at 5 µM: 100%
PKN2; 10 μM
  remaining binding at 10 µM: 95%
PRKCD; 5 μM
  remaining binding at 5 µM: 72%
PRKCD; 10 μM
  remaining binding at 10 µM: 100%
CDC2L5; 5 μM
  remaining binding at 5 µM: 100%
CDC2L5; 10 μM
  remaining binding at 10 µM: 97%
CAMK2D; 5 μM
  remaining binding at 5 µM: 94%
CAMK2D; 10 μM
  remaining binding at 10 µM: 100%
EGFR(G719S); 5 μM
  remaining binding at 5 µM: 83%
EGFR(G719S); 10 μM
  remaining binding at 10 µM: 94%
MEK6; 5 μM
  remaining binding at 5 µM: 83%
MEK6; 10 μM
  remaining binding at 10 µM: 100%
FGFR4; 5 μM
  remaining binding at 5 µM: 96%
FGFR4; 10 μM
  remaining binding at 10 µM: 97%
p38-alpha; 5 μM
  remaining binding at 5 µM: 63%
p38-alpha; 10 μM
  remaining binding at 10 µM: 100%
CAMK1D; 5 μM
  remaining binding at 5 µM: 81%
CAMK1D; 10 μM
  remaining binding at 10 µM: 91%
EPHA4; 5 μM
  remaining binding at 5 µM: 100%
EPHA4; 10 μM
  remaining binding at 10 µM: 96%
PIK3CA(E545K); 5 μM
  remaining binding at 5 µM: 81%
PIK3CA(E545K); 10 μM
  remaining binding at 10 µM: 100%
MYLK4; 5 μM
  remaining binding at 5 µM: 94%
MYLK4; 10 μM
  remaining binding at 10 µM: 99%
PFCDPK1(P.falciparum); 5 μM
  remaining binding at 5 µM: 100%
PFCDPK1(P.falciparum); 10 μM
  remaining binding at 10 µM: 100%
MRCKA; 5 μM
  remaining binding at 5 µM: 89%
MRCKA; 10 μM
  remaining binding at 10 µM: 99%
LIMK1; 5 μM
  remaining binding at 5 µM: 100%
LIMK1; 10 μM
  remaining binding at 10 µM: 100%
MKNK1; 5 μM
  remaining binding at 5 µM: 36%
MKNK1; 10 μM
  remaining binding at 10 µM: 100%
DAPK3; 5 μM
  remaining binding at 5 µM: 100%
DAPK3; 10 μM
  remaining binding at 10 µM: 100%
[1]; 5 μM
  remaining binding at 5 µM: 75%
[1]; 10 μM
  remaining binding at 10 µM: 100%
ACVR1; 5 μM
  remaining binding at 5 µM: 100%
ACVR1; 10 μM
  remaining binding at 10 µM: 100%
PRKG1; 5 μM
  remaining binding at 5 µM: 96%
PRKG1; 10 μM
  remaining binding at 10 µM: 100%
EGFR(L858R,T790M); 5 μM
  remaining binding at 5 µM: 78%
EGFR(L858R,T790M); 10 μM
  remaining binding at 10 µM: 88%
TYRO3; 5 μM
  remaining binding at 5 µM: 99%
TYRO3; 10 μM
  remaining binding at 10 µM: 100%
